Measurements taken from patent US20240270741A1 (Cogent Biosciences, Inc., priority 2023, published 2024).

biological target: FGFR2 (Homo sapiens, UniProt P21802); test: FGFR wild type enzyme assay (HTRF KinEASE-TK), FGFR2; conditions: Enz FGFR2 (nM), FGFR2 wild type enzyme assay
Sequence (P21802 399-821 limits assumed): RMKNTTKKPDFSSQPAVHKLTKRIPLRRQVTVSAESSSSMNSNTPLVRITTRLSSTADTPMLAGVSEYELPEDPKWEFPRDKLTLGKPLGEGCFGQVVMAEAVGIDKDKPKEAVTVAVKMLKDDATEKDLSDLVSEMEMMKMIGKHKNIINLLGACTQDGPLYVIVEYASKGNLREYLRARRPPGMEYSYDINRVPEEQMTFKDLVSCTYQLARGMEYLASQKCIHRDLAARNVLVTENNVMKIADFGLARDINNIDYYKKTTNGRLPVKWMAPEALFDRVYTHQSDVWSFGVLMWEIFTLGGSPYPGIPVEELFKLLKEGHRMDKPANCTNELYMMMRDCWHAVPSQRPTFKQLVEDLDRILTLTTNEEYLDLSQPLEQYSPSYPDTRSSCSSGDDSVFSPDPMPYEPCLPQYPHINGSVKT

| SMILES | IC50 [nM] |
| --- | --- |
| Cc1c(-c2cc(Sc3ccc(F)cc3C#N)c3c(C#N)cnn3c2)cnn1[C@@H]1CCC[C@@H](O)C1 [Example 497, 4-((2-cyano-4-fluorophenyl)thio)-6-(1-((1R,3R)-3-hydroxycyclohexyl)-5-methyl-1H-pyrazol-4-y)pyrazolo[1,5-a]pyridine-3-carbonitrile] | 1 |
| Cc1c(-c2cc(Sc3ccc(F)cc3C#N)c3c(C#N)cnn3c2)cnn1[C@H]1CCC[C@@H](O)C1 [Example 498, 4-((2-cyano-4-fluorophenyl)thio)-6-(1-((1S,3R)-3-hydroxycyclohexyl)-5-methyl-1H-pyrazol-4-yl)pyrazolo[1,5-a]pyridine-3-carbonitrile] | 2 |
| Cc1c(-c2cc(Sc3ccc(F)cc3C#N)c3c(C#N)cnn3c2)cnn1[C@@H]1CCC[C@H](O)C1 [Example 499, 4-((2-cyano-4-fluorophenyl)thio)-6-(1-((1R,3S)-3-hydroxycyclohexyl)-5-methyl-1H-pyrazol-4-yl)pyrazolo[1,5-a]pyridine-3-carbonitrile] | 1 |
| C[C@]1(O)CC[C@@H](n2cc(-c3cc(Sc4ccc(F)cc4C#N)c4c(C#N)cnn4c3)cn2)CC1 [Example 500, 4-((2-cyano-4-fluorophenyl)thio)-6-(1-((1s,4s)-4-hydroxy-4-methylcyclohexyl)-1H-pyrazol-4-yl)pyrazolo[1,5-a]pyridine-3-carbonitrile] | 1 |
| C[C@]1(O)CC[C@H](n2cc(-c3cc(Sc4ccc(F)cc4C#N)c4c(C#N)cnn4c3)cn2)CC1 [Example 501, 4-((2-cyano-4-fluorophenyl)thio)-6-(1-((1r,4r)-4-hydroxy-4-methylcyclohexyl)-1H-pyrazol-4-yl)pyrazolo[1,5-a]pyridine-3-carbonitrile] | 1 |
| C[C@@H](O)C(=O)N1CCC(n2cc(-c3cc(Sc4ccc(F)cc4C#N)c4c(C#N)cnn4c3)cn2)CC1 [Example 502, (R)-4-((2-cyano-4-fluorophenyl)thio)-6-(1-(1-(2-hydroxypropanoyl)piperidin-4-yl)-1H-pyrazol-4-yl)pyrazolo[1,5-a]pyridine-3-carbonitrile] | 1 |
| C[C@]1(O)CC[C@@H](n2cc(-c3cc(Sc4ccccc4C#N)c4c(C#N)cnn4c3)cn2)CC1 [Example 503, 4-((2-cyanophenyl)thio)-6-(1-((1s,4s)-4-hydroxy-4-methylcyclohexyl)-1H-pyrazol-4-yl)pyrazolo[1,5-a]pyridine-3-carbonitrile] | 0.5 |
| C[C@]1(O)CC[C@H](n2cc(-c3cc(Sc4ccccc4C#N)c4c(C#N)cnn4c3)cn2)CC1 [Example 504, 4-((2-cyanophenyl)thio)-6-(1-((1r,4r)-4-hydroxy-4-methylcyclohexyl)-1H-pyrazol-4-yl)pyrazolo[1,5-a]pyridine-3-carbonitrile] | 0.4 |
| CN1CC(n2cc(-c3cc(Sc4ncccc4F)c4c(C#N)cnn4c3)cn2)CCC1=O (stereo not shown) [Example 505, 4-((3-fluoropyridin-2-yl)thio)-6-(1-(1-methyl-6-oxopiperidin-3-yl)-1H-pyrazol-4-yl)pyrazolo[1,5-a]pyridine-3-carbonitrile] | 3 |
| CN1CCC(n2cc(-c3cc(Sc4ncccc4F)c4c(C#N)cnn4c3)cn2)CC1=O (stereo not shown) [Example 506, 4-((3-fluoropyridin-2-yl)thio)-6-(1-(1-methyl-2-oxopiperidin-4-yl)-1H-pyrazol-4-yl)pyrazolo[1,5-a]pyridine-3-carbonitrile] | 1 |
| N#Cc1nn([C@H]2CCCNC2)cc1-c1cc(Sc2ncccc2F)c2c(C#N)cnn2c1 [Example 507, (S)-6-(3-cyano-1-(piperidin-3-yl)-1H-pyrazol-4-yl)-4-((3-fluoropyridin-2-y)thio)pyrazolo[1,5-a]pyridine-3-carbonitrile] | 30 |
| CNC(=O)c1nn([C@H]2CCCNC2)cc1-c1cc(Sc2ncccc2F)c2c(C#N)cnn2c1 [Example 508, (S)-4-(3-cyano-4-((3-fluoropyridin-2-yl)thio)pyrazolo[1,5-a]pyridin-6-yl)-N-methyl-1-(piperidin-3-yl)-1H-pyrazole-3-carboxamide] | 48 |
| N#Cc1cnn2cc(-c3cn([C@H]4CCCNC4)c4nccnc34)cc(Sc3ncccc3F)c12 [Example 509, (S)-4-((3-fluoropyridin-2-yl)thio)-6-(5-(piperidin-3-yl)-5H-pyrrolo[2,3-b]pyrazin-7-yl)pyrazolo[1,5-a]pyridine-3-carbonitrile] | 22 |
| CC(C)(CO)N1CC[C@H](n2cc(-c3cc(Sc4ncccc4F)c4c(C#N)cnn4c3)cn2)C1 [Example 510, (S)-4-((3-fluoropyridin-2-yl)thio)-6-(1-(1-(1-hydroxy-2-methylpropan-2-yl)pyrrolidin-3-yl)-1H-pyrazol-4-yl)pyrazolo[1,5-a]pyridine-3-carbonitrile] | 1 |
| Cc1c(-c2cc(Sc3ccc(F)cc3C#N)c3c(C#N)cnn3c2)cnn1CCO [Example 511, 4-((2-cyano-4-fluorophenyl)thio)-6-(1-(2-hydroxyethyl)-5-methyl-1H-pyrazol-4-yl)pyrazolo[1,5-a]pyridine-3-carbonitrile] | 8 |
| Cc1c(-c2cc(Sc3ccc(F)cc3C#N)c3c(C#N)cnn3c2)cnn1[C@H]1CCCN(C(=O)[C@@H](C)O)C1 [Example 512, 4-((2-cyano-4-fluorophenyl)thio)-6-(1-((S)-1-((R)-2-hydroxypropanoyl)piperidin-3-yl)-5-methyl-1H-pyrazol-4-yl)pyrazolo[1,5-a]pyridine-3-carbonitrile] | 1 |

| SMILES | IC50 [nM] |
| --- | --- |
| CS(=O)(=O)N1CCC(n2cc(-c3cc(Sc4ccccc4C#N)c4c(C#N)cnn4c3)cn2)CC1 [Example 513, 4-((2-cyanophenyl)thio)-6-(1-(1-(methylsulfonyl)piperidin-4-yl)-1H-pyrazol-4-yl)pyrazolo[1,5-a]pyridine-3-carbonitrile] | 1 |
| CS(=O)(=O)N1CCC[C@H](n2cc(-c3cc(Sc4ccccc4C#N)c4c(C#N)cnn4c3)cn2)C1 [Example 514, (S)-4-((2-cyanophenyl)thio)-6-(1-(1-(methylsulfonyl)piperidin-3-yl)-1H-pyrazol-4-yl)pyrazolo[1,5-a]pyridine-3-carbonitrile] | 1 |
| CN1CCC[C@H](n2cc(-c3cc(Sc4ccccc4C#N)c4c(C#N)cnn4c3)cn2)C1 [Example 515, (S)-4-((2-cyanophenyl)thio)-6-(1-(1-methylpiepridin-3-yl)-1H-pyrazol-4-yl)pyrazolo[1,5-a]pyridine-3-carbonitrile] | 1 |
| CC(=O)N1CCC[C@H](n2cc(-c3cc(Sc4ccccc4C#N)c4c(C#N)cnn4c3)cn2)C1 [Example 516, (S)-6-(1-(1-acetylpiperidin-3-yl)-1H-pyrazol-4-yl)-4-((2-cyanophenyl)thio)pyrazolo [1,5-a]pyridine-3-carbonitrile] | 0.4 |
| N#Cc1ccccc1Sc1cc(-c2cnn([C@H]3CCCN(C(=O)CO)C3)c2)cn2ncc(C#N)c12 [Example 517, (S)-4-((2-cyanophenyl)thio)-6-(1-(1-(2-hydroxyacetyl)piperidin-3-yl)-1H-pyrazol-4-yl)pyrazolo[1,5-a]pyridine-3-carbonitrile] | 0.4 |
| N#Cc1ccccc1Sc1cc(-c2cnn([C@H]3CCCC[C@@H]3O)c2)cn2ncc(C#N)c12 [Example 518, 4-((2-cyanophenyl)thio)-6-(1-((1S,2S)-2-hydroxycyclohexyl)-1H-pyrazol-4-yl)pyrazolo[1,5-a]pyridine-3-carbonitrile] | 0.4 |
| N#Cc1ccccc1Sc1cc(-c2cnn([C@@H]3CCCC[C@H]3O)c2)cn2ncc(C#N)c12 [Example 519, 4-((2-cyanophenyl)thio)-6-(1-((1R,2R)-2-hydroxycyclohexyl)-1H-pyrazol-4-yl)pyrazolo[1,5-a]pyridine-3-carbonitirle] | 1 |
| CC(=O)N1CCCC(n2cc(-c3cc(Sc4ccccc4C#N)c4c(C#N)cnn4c3)cn2)CC1 (stereo not shown) [Example 520, 6-(1-(1-acetylazepan-4-yl)-1H-pyrazol-4-yl)-4-((2-cyanophenyl)thio)pyrazolo [1,5-a]pyridine-3-carbonitrile] | 0.4 |
| N#Cc1cnn2cc(-c3cnn(CCCO)c3)cc(Sc3ncccc3F)c12 [Example 521, 4-((3-fluoropyridin-2-yl)thio)-6-(1-(3-hydroxypropyl)-1H-pyrazol-4-yl)pyrazolo[1,5-a]pyridine-3-carbonitrile] | 2 |
| N#Cc1cnn2cc(-c3cnn(C[C@@H](O)CO)c3)cc(Sc3ncccc3F)c12 [Example 522, (R)-6-(1-(2,3-dihydroxypropyl)-1H-pyrazol-4-yl)-4-((3-fluoropyridin-2-yl)thio)pyrazolo[1,5-a]pyridine-3-carbonitrile] | 2 |
| N#Cc1cnn2cc(-c3cnn(C[C@H](O)CO)c3)cc(Sc3ncccc3F)c12 [Example 523, (S)-6-(1-(2,3-dihydroxypropyl)-1H-pyrazol-4-yl)-4-((3-fluoropyridin-2-yl)thio)pyrazolo[1,5-a]pyridine-3-carbonitrile] | 2 |
| N#Cc1cnn2cc(-c3cnn(C(CO)CO)c3)cc(Sc3ncccc3F)c12 [Example 524, 6-(1-(1,3-dihydroxypropan-2-yl)-1H-pyrazol-4-yl)-4-((3-fluoropyridin-2-yl)thio)pyrazolo[1,5-a]pyridine-3-carbonitrile] | 3 |
| N#Cc1ccccc1Sc1cc(-c2cnn(C(CO)CO)c2)cn2ncc(C#N)c12 [Example 525, 4-((2-cyanophenyl)thio)-6-(1-(1,3-dihydroxypropan-2-yl)-1H-pyrazol-4-yl)pyrazolo[1,5-a]pyridine-3-carbonitrile] | 1 |
| N#Cc1ccccc1Sc1cc(-c2ccc(N3CCNCC3)nc2)cn2ncc(C#N)c12 [Example 526, 4-((2-cyanophenyl)thio)-6-(6-(piperazin-1-yl)pyridin-3-yl)pyrazolo[1,5-a]pyridine-3-carbonitrile] | 1 |
| CN1CCN(c2ccc(-c3cc(Sc4ccccc4C#N)c4c(C#N)cnn4c3)cn2)CC1 [Example 527, 4-((2-cyanophenyl)thio)-6-(6-(4-methylpiperazin-1-yl)pyridin-3-yl)pyrazolo[1,5-a]pyridine-3-carbonitrile] | 0.4 |
